Earlier results, collected in patent US20030232858A1, “Use of hydroxyeicosatetraenoic acid compounds to treat dry mouth” (priority 2002, published 2003).

## CCCCC[C@H](O)/C=C/C=C\C/C=C\C/C=C\CCCC(=O)O [15-HETE, 15-Hydroxyeicosatetraenoic acid]
Leukotriene B4
  effects on leukotriene B4 production or its activity: inhibitory effects
colitis
  anti-inflammatory properties in colitis: minor anti-inflammatory properties
Psoriatic skin lesions; injected into psoriatic skin lesions
  effect on psoriasis: can improve psoriasis
Psoriatic skin lesions; intralesional injection, 0.1 ml
  concentration required to cause a clinical effect: 10 µmol/L
Psoriatic skin lesions; intralesional injection, 0.1 ml of 10 μmol/L
  amount required to cause a clinical effect: 300 ng
